Results taken from patent US12478616B2, “PI3K inhibitors and uses thereof” (Sloan-Kettering Institute for Cancer Research, priority 2018, dated 2025).
Like-named read-outs stand apart in the source and are kept apart here. Marks after values point to notes of the source that are not given here. Each block holds one compound with its values, some of them ahead of it.

How the values were obtained:
[1] = target: PI3Kα (Homo sapiens (Human), UniProt P42336); assay: PI3Kα kinase (biochemical) assay
[2] = tested on: S6 ribosomal protein (S6) phosphorylation; conditions: single administration; free BYL719 oral, Fi(BYL719) 25 mg/kg; up to 24 hours; cited from earlier work
[3] = cited from earlier work
[4] = tested on: H22 patient-derived xenografts; conditions: Fi(BYL719) 25 mg/kg twice a week; free BYL719 7 mg/kg/day (50 mg/kg/week); cited from earlier work
[5] = Mouse pharmacokinetics, cassette dosed free drug; assay type: in vivo; conditions: for MRTiv / BA / MRTpo / Tmax / AUC / concentration at 5 min / clearance / Vd / Cmax: cassette; for concentration at 5 min: read-out: C5min; for clearance: read-out: Cltotal (converted); for Vd: read-out: VDss
From the text: (§1) Mouse PK data for Compound (14) (cassette dosing) for free drug (i.e., not nanoformulated) is tabulated in Table 2 using amorphous material. […] The corresponding rat PK data is tabulated in Table 3, where the results are consistent with mouse PK data.

[6] = healthy mice, single dose, BYL719 25 or 50 mg/kg, Fi(BYL719) 25 mg/kg, cited from earlier work
[7] = rat, BYL719 dose 3.4 mg/kg IV, cited from earlier work
[8] = Fucoidan nanoparticle formulation, drug load and particle size; assay type: physicochemical; conditions: Table 1
Protocol: FIG. 13. Generation of Compound (14) Nanoparticles [Fi(Compound (14))]. An aliquot of 0.1 mL of Compound (14) dissolved in dimethyl sulfoxide (25 mg/mL) was added drop-wise ([…]) to a 0.6 mL aqueous polysaccharide solution (15 mg/mL) containing IR820 (2.5 mg/mL) and 0.05 mM sodium bicarbonate. An aliquot of 0.1 mL of 8-arm PEG-amine dissolved in water (Creative Peg Works, 20 kD, 5 mg/mL) was added drop-wise to the mixture followed by centrifugation (20,000 g, 30 min). The nanoparticle pellet was re-suspended in 1 mL of sterile PBS. The suspension was sonicated for 10 s with a probe tip ultrasonicator at 40% intensity (Sonics inc). The nanoparticles were lyophilized in a 5% saline/sucrose solution.
Nanoformulated Compound (14) [Fi(Compound (14))] was typically prepared as illustrated in FIG. 13 by adding a DMSO solution dropwise to an aqueous polysaccharide solution containing the near-IR dye IR820. This was followed by the addition of an aqueous solution containing 20 kD, 8-arm PEG-amine, centrifugation and ultra-sonication yielding nanoparticles (<200 nm) with good batch consistency (FIG. 14). […]
Importantly, each of these 3 new derivatives shown in Table 8 were successfully encapsulated in fucoidan polysaccharide nanoparticles. Following nanoformulation, the drug loading in the nanoparticle for each analog was determined.

[9] = tested on: Cal-33 xenografts; conditions: Fi(BYL719) 25 mg/kg twice a week; free BYL719 7 mg/kg/day (50 mg/kg/week); cited from earlier work
[10] = 60 consecutive days; BYL719 50 mg/kg/day, Fi(BYL719) 50 mg/kg/week; cited from earlier work
[11] = tested on: PI3K; assay: PI3K cellular assays; assay type: cell-based; set-up: key: Inactive (−); Low (+); Intermediate (++); High (+++); conditions: for PI3K cellular activity: Table 1
[12] = Rat pharmacokinetics, cassette dosed free Compound (14); assay type: in vivo
From the text: as §1

[13] = tested on: ERK phosphorylation; conditions: cited from earlier work
[14] = tested on: B16F10 melanoma lung metastases; conditions: FiDOX 1, 5 and 30 mg/kg; free doxorubicin 6 mg/kg; cited from earlier work
[15] = Table 4, pyridine-modified inhibitors, read-out: PI3Kα (IC50)
[16] = IV 0.1 mg/kg, 1 mL/kg (10-in-One)
[17] = in vivo, IV 0.1 mg/kg, 1 mL/kg (10-in-One), read-out: AUCiv
[18] = in vivo, IV 0.1 mg/kg, 1 mL/kg (10-in-One)
[19] = in vivo, PO 1 mg/kg, 5 mL/kg (5-in-One)
[20] = in vivo, PO 1 mg/kg, 5 mL/kg (5-in-One), read-out: AUCpo
[21] = Table 5, pyrone inhibitors, read-out: PI3Kα (IC50)
[22] = Table 6, proline-modified inhibitors, read-out: PI3Kα (IC50)

Sequence of PI3Kα (P42336 whole entry): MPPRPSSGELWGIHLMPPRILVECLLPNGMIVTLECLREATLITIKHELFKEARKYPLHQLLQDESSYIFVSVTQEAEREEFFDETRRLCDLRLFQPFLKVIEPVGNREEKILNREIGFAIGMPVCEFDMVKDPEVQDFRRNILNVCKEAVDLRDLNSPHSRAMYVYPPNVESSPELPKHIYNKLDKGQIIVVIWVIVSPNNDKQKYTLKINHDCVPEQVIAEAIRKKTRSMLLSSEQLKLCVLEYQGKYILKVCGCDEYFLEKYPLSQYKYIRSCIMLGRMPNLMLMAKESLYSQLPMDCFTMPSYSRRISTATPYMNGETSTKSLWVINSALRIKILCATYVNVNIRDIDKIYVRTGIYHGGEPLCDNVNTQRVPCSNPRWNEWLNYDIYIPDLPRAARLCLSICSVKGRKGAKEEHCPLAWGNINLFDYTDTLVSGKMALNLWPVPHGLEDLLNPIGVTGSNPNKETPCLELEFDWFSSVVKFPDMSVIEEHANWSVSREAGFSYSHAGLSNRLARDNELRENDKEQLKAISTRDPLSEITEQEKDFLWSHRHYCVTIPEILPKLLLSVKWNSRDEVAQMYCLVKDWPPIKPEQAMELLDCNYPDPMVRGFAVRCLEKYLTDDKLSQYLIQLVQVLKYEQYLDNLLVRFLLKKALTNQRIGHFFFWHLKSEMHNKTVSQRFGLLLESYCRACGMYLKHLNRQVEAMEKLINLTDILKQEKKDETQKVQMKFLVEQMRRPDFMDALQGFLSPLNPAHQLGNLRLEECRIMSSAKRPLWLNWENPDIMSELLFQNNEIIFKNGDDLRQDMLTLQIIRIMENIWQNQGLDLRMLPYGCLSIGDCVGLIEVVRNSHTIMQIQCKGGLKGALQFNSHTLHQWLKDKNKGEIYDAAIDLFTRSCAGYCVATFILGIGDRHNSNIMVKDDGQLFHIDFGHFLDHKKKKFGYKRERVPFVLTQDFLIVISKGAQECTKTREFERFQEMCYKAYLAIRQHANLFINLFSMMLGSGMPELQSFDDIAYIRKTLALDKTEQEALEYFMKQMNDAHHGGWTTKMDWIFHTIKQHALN
Sequence of PI3Kα (P27986 whole entry partner): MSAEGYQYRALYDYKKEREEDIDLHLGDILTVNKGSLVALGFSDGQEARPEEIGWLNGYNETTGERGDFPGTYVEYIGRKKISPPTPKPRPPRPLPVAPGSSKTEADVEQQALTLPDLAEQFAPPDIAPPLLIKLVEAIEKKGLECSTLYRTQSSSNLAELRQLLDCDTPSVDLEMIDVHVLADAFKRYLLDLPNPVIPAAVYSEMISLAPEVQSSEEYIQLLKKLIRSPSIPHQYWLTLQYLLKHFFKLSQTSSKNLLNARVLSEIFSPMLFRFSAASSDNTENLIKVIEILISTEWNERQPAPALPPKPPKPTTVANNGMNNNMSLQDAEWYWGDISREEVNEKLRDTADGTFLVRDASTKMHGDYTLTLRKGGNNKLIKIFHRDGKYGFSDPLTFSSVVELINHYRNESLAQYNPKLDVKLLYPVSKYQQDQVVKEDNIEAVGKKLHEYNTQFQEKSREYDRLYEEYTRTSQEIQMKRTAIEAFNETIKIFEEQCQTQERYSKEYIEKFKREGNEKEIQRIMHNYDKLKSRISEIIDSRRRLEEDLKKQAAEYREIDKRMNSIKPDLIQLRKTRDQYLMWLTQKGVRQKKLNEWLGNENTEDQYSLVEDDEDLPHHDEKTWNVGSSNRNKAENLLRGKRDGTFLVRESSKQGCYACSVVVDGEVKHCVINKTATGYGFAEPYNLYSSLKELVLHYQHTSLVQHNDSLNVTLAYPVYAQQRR

SMILES: Cc1nc(NC(=O)N2CCC[C@H]2C(N)=O)sc1-c1ccnc(C(C)(C)C(=O)OC(C)OC(=O)OC2CCCCC2)c1 (some centres unmarked) [Compound (3)]
IC50 [1, 15]: < 100 nM

SMILES: CCOC(=O)C1(c2cc(-c3sc(NC(=O)N4CCC[C@H]4C(N)=O)nc3C)ccn2)CC1 [Compound (5)]
IC50 [1, 15]: < 100 nM

SMILES: CCOC(=O)[C@@H]1CCN(C(=O)Nc2nc(C)c(-c3cc(C(C)(C)C(F)(F)F)oc(=O)c3)s2)[C@@H]1C(N)=O [Compound (10)]
PI3Kα inhibition in biochemical assay (in words) [1]: active | IC50 [1, 21]: < 100 nM

SMILES: CCOC(=O)[C@@H]1C[C@@H](C(N)=O)N(C(=O)Nc2nc(C)c(-c3cc(C(C)(C)C(F)(F)F)oc(=O)c3)s2)C1 [Compound (11)]
PI3Kα inhibition in biochemical assay (in words) [1]: active | IC50 [1, 21]: < 100 nM

SMILES: CCOC(=O)[C@H]1C[C@@H](C(N)=O)N(C(=O)Nc2nc(C)c(-c3cc(C(C)(C)C(F)(F)F)oc(=O)c3)s2)C1 [Compound (12)]
PI3Kα inhibition in biochemical assay (in words) [1]: active | IC50 [1, 21]: < 100 nM

SMILES: Cc1nc(NC(=O)N2CCC[C@H]2C(N)=O)sc1-c1cc(C(C)C)oc(=O)c1 [Compound (13)]
IC50 [1, 21]: < 100 nM

SMILES: Cc1nc(NC(=O)N2CCC[C@H]2C(N)=O)sc1-c1cc(C(C)(C)C(F)(F)F)oc(=O)c1 [Compound (14)]
mean residence time (in words) ([5]; cassette dosing, free drug): short mean residence time | oral bioavailability (in words) ([5]; cassette dosing, free drug): modest oral bioavailability | total clearance (in words) ([5]; cassette dosing, free drug): high total clearance | MRTiv [5, 16]: 0.31 h | BA ([5]; IV 0.1 mg/kg, PO 1 mg/kg): 13.5% | MRTpo ([5]; PO 1 mg/kg, 5 mL/kg (5-in-One)): 1.07 h | AUC [5, 17]: 17.8 ng·h/mL | concentration at 5 min [5, 18]: 66.4 ng/mL | clearance [5, 18]: 96.5 mL/min/kg | Vd [5, 18]: 1.78 L/kg | Cmax [5, 19]: 17.1 ng/mL | AUC [5, 20]: 24 ng·h/mL | Tmax ([5]; in vivo, PO 1 mg/kg, 5 mL/kg (5-in-One), read-out: Tmax): 0.42 h | MRTiv [12, 16]: 0.42 h | BA ([12]; IV 0.1 mg/kg, PO 1 mg/kg): 5.9% | MRTpo ([12]; PO 1 mg/kg, 5 mL/kg (5-in-One)): 2.1 h | AUC [12, 17]: 45.1 ng·h/mL | concentration at 5 min ([12]; in vivo, IV 0.1 mg/kg, 1 mL/kg (10-in-One), read-out: C5min): 114 ng/mL | clearance ([12]; in vivo, IV 0.1 mg/kg, 1 mL/kg (10-in-One), read-out: Cltotal (converted)): 37 mL/min/kg | Vd ([12]; in vivo, IV 0.1 mg/kg, 1 mL/kg (10-in-One), read-out: VDss): 0.932 L/kg | Cmax [12, 19]: 11.8 ng/mL | Tmax [12, 19]: 0.5 h | AUC [12, 20]: 26.9 ng·h/mL | PI3Kα inhibition in biochemical assay (in words) [1]: potent inhibitor | IC50 ([1]; Table 1, read-out: PI3Kα (IC50)): < 100 nM | IC50 [1, 21]: < 100 nM | IC50 ([1]; refers to Table 5, read-out: PI3Kα inhibitor in biochemical assays): < 100 nM | Nanoparticle drug load, % [8]: 22% | efficacy in PI3K cellular assays [11]: (+++) | PI3K cellular activity [11]: (+++)***

SMILES: Cc1cc(-c2sc(NC(=O)N3CCC[C@H]3C(N)=O)nc2C)cc(=O)o1 [Compound (15)]
IC50 [1, 21]: < 500 nM

SMILES: CCOC(=O)[C@@H]1CCN(C(=O)Nc2nc(C)c(-c3ccnc(C(C)(C)C(F)(F)F)c3)s2)[C@@H]1C(N)=O [Compound (20)]
PI3Kα inhibition in biochemical assay (in words) [1]: good intrinsic PI3Kα potency | IC50 [1, 22]: < 100 nM

SMILES: CCOC(=O)C1CC(C(N)=O)N(C(=O)Nc2nc(C)c(-c3ccnc(C(C)(C)C(F)(F)F)c3)s2)C1 (centres unmarked) [Compound (21)]
PI3Kα inhibition in biochemical assay (in words) [1]: good intrinsic PI3Kα potency | IC50 [1, 22]: < 100 nM

SMILES: Cn1cnc2c(F)c(Nc3ccc(Br)cc3F)c(C(=O)NOCCO)cc21 [MEK162]
pERK inhibition in the skin ([13]; 4 and 24 hours): phosphorylation returned in both tissues after 24 hours | pERK inhibition in the tumor ([13]; after 24 hours): phosphorylation returned in both tissues after 24 hours

SMILES: COc1cccc2c1C(=O)c1c(O)c3c(c(O)c1C2=O)C[C@@](O)(C(=O)CO)C[C@@H]3O[C@H]1C[C@H](N)[C@H](O)[C@H](C)O1 [doxorubicin]
tumor burden and survival after a single injection [14]: did not have a significant effect

Further lines, with some results ahead:

IC50 [1, 15]: < 100 nM
SMILES: CCOC(=O)C(C)c1cc(-c2sc(NC(=O)N3CCC[C@H]3C(N)=O)nc2C)ccn1 (mixture of isomers) [Compound (6)]

MRTiv [5, 16]: 1.12 h | BA ([5]; IV 0.1 mg/kg, PO 1 mg/kg): 71.2% | MRTpo ([5]; PO 1 mg/kg, 5 mL/kg (5-in-One)): 2.12 h | Tmax ([5]; PO 1 mg/kg, 5 mL/kg (5-in-One)): 1 h | AUC [5, 17]: 73.9 ng·h/mL | concentration at 5 min [5, 18]: 56.4 ng/mL | clearance [5, 18]: 22.9 mL/min/kg | Vd [5, 18]: 1.54 L/kg | Cmax [5, 19]: 184 ng/mL | AUC [5, 20]: 526 ng·h/mL | Nanoparticle drug load, % [8]: 22%
SMILES: Cc1nc(NC(=O)N2CCC[C@H]2C(N)=O)sc1-c1ccnc(C(C)(C)C(F)(F)F)c1 [BYL719, alpelisib, reference compound]
inhibition of S6 phosphorylation in tumor [2]: strong albeit transient inhibition | observed half-life in humans [3]: 11.5 h | antitumor activity in H22 [4]: transient delay of tumor growth followed by acquired insensitivity to the treatment | serum glucose levels [6]: spike | serum insulin levels ([6]; within 24 hours): spike | BA ([7]; 15 mg/kg PO): 58% | Cltotal [7]: 10 mL/min/kg | MRTiv [7]: 2.9 h | VDss [7]: 1.9 L/kg | antitumor activity in Cal-33 [9]: no appreciable antitumor activity | serum glucose and insulin levels after chronic treatment [10]: Significantly elevated | PI3K cellular activity [11]: (+++)***

IC50 [1, 15]: < 100 nM
SMILES: Cc1nc(NC(=O)N2CCC[C@H]2C(N)=O)sc1-c1ccnc(C(C)(C)C(=O)OC2CCOC2=O)c1 (some centres unmarked) [Compound (1)]

IC50 [1, 15]: < 100 nM
SMILES: CCOC(=O)CC(C)(C)c1cc(-c2sc(NC(=O)N3CCC[C@H]3C(N)=O)nc2C)ccn1 [Compound (2)]

IC50 [1, 15]: < 100 nM
SMILES: Cc1nc(NC(=O)N2CCC[C@H]2C(N)=O)sc1-c1ccnc(C(C)(C)C(=O)OCc2oc(=O)oc2C)c1 [Compound (4)]

IC50 [1, 15]: < 100 nM
SMILES: Cc1nc(NC(=O)N2CCC[C@H]2C(N)=O)sc1-c1ccnc(C(C)(C)C(=O)O)c1 [Compound (7)]

IC50 [1, 15]: < 100 nM
SMILES: COC(=O)C(C)(C)c1cc(-c2sc(NC(=O)N3CCC[C@H]3C(N)=O)nc2C)ccn1 [Compound (8)]

IC50 [1, 15]: < 100 nM
SMILES: COC(=O)c1cc(-c2sc(NC(=O)N3CCC[C@H]3C(N)=O)nc2C)ccn1 [Compound (9)]
